{
  "source": "patent US20180332878A1",
  "about": "“BITTER TASTE INHIBITOR” (NAGAOKA CO., LTD., priority 2017, published 2018)",
  "type_in_all_cases": "in vivo, human",
  "key": {"[1]": {"experiment": "Sensory evaluation, summary of Table 1", "settings": "added to a food or beverage having a bitter taste; without deteriorating the influence of the food or beverage itself", "excerpt": "The beer (without addition of isobutyl angelate) was tasted by seven panelists (one twenty-something male, one thirty-something male, one forty-something male, one fifty-something male, one sixty-something male, and one twenty-something female and one thirty-something female). Subsequently, the seven panelists rinsed their mouths sufficiently, and then the beer having isobutyl angelate added thereto (with addition of isobutyl angelate) was tasted by the seven panelists. The panelists compared the isobutyl-angelate-free beer with the isobutyl-angelate-containing beer, and then determined whether or not the bitter taste in the isobutyl-angelate-containing beer was improved compared with the isobutyl-angelate-free beer in accordance with the following criteria. When the sum total of the scores determined by the seven panelists was 10 points or greater, it was determined that the bitter taste was improved.\n1 point: although a bitter taste was sensed, the bitter taste was improved compared with the isobutyl-angelate-free beer; and\n0 point: the bitter taste was not improved."}, "[2]": {"experiment": "Sensory evaluation, summary of Table 2", "settings": "added to an amino acid having a bitter taste"}, "[3]": {"experiment": "Sensory evaluation, summary of Table 3", "settings": "added to an extract of a crude drug having a bitter taste"}},
  "data": [
    {"compound": "C/C=C(/C)C(=O)OCC(C)C", "note": "[isobutyl angelate, Isobutyl angelate]", "values": [
      {"measurement": "Effect on bitter taste (summary of Table 1)", "setting": "[1]", "result": "the bitter taste is reduced"},
      {"measurement": "Effect on bitter taste (summary of Table 2)", "setting": "[2]", "result": "the bitter taste derived from the amino acid is reduced"},
      {"measurement": "Effect on bitter taste (summary of Table 3)", "setting": "[3]", "result": "a bitter taste derived from the crude drug is reduced"}
    ]}
  ]
}
